The source of these data is patent US11691962B2 (eXIthera Pharmaceuticals, Inc., priority 2018, dated 2023).

What all share (type): biochemical
Assay [1] concerns the target Factor XIa (Homo sapiens (Human), UniProt P03951). Nature of the assay: Factor XIa enzyme inhibition assay (dose response, fluorogenic AMC substrate). The settings on record: read-out: hFXIa IC50. Put shortly:
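Human FXIa at 0.25 nM final with 50 μM final PyroGlu-Pro-Arg-AMC in 20 mM Hepes pH 7.4, 150 mM NaCl, 0.02% Tween 20. Two-fold serial compound dilutions; fluorescence read every minute for 30 min at 30° C. IC50 from a four-parameter Hill fit.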

Assay [2] concerns the target Factor Xa (Homo sapiens (Human), UniProt P00742). As to the kind of experiment: Dose response assay for protease inhibitors: Factor Xa. The conditions noted are these: selectivity, Factor Xa over Factor XIa. How it is done: (§1) • Assay buffer: 20 mM Hepes, pH 7.4; 150 mM NaCl; 0.02% Tween 20 • Compounds: 10 mM stocks in DMSO • Substrate: 20 mM Glp-Pro-Arg-AMC, 25 mg/2.3 mL H2O (store at +4° C.) [Factor XIa, thrombin, and trypsin] • 20 mM Pro-Phe-Arg-AMC (Bachem I-1295), 25 mg/2.2 mL H2O • or Boc-Leu-Gly-Arg-AMC (Bachem I-1105), 25 mg/2.07 mL H2O • (store at +4° C.) [Factor Xa] • Enzyme: Factor XIa; 0.25 μM in 50% glycerol (20 μg/mL) • Trypsin; 0.2 μM in 50% glycerol (4.8 μg/mL) • Thrombin; 0.2 μM in 50% glycerol (7.34 μg/mL) • Factor Xa; 0.2 μM in 50% glycerol (9.2 μg/mL) • These stocks are aliquoted (˜100 μL/aliquot) and stored at −20° C. Methods: • 1. Dilute the substrate to 100 μM in assay buffer (30 μL/6 mL). The enzyme is diluted to 0.5 nM just prior to use (12 μL/6 mL for Factor XIa; 15 μL/6 mL for all of the rest.) • 2. Pipette 50 μL of substrate into each well of the 96 well (12×8) microtiter plate. (Column 1 is used as the 100% activity control and receives no compound, and Column 12 is the blank and receives no enzyme.) Add an additional 46 μL to column 2. • 3. Pipette 4 μL of each compound into the appropriate well in column 2 of the plate (unknowns assayed in triplicate, standard assayed in duplicate). The final compound concentration will be […] of the stock. • 4. Serially two-fold dilute the compound by mixing the sample in column 2, removing 50 μL to the next well (column 3), mix and remove to column 4, etc. until column 11. After mixing column 11, remove 50 μL and discard. • 5. Pipette 50 μL of buffer into column 12. Initiate the reaction by adding 50 μL of enzyme solution to each well of columns 1-11 as rapidly as possible. • 6. Read the plate in a spectrophotometer (SpectraMax) at 30° C., wherein each well is measured every 60 s for 30 min. For Factor Xa assays, each well is measured every 1 min for a total of 60 min. • 7. For Factor XIa assays, the compounds are assayed, in duplicate, at 3 different starting concentrations, 20, 2, and 0.2 μM; 1:10, 1:100, and 1:1000 dilution of 10 mM stock or at 2, 0.2, and 0.02 μM; 1:100, 1:1000, and 1:10,000 dilution of 10 mM stock. Data for each concentration are combined for graphing and data fitting. • 8. Data can be used both for estimation of IC50 and for estimation of Kon.

The test system of assay [3] is Trypsin. As to the kind of experiment: Dose response assay for protease inhibitors: trypsin. The settings on record: selectivity, trypsin over Factor XIa. How it is done: as §1
In assay [4] the target is Thrombin (Homo sapiens (Human), UniProt P00734). As to the kind of experiment: Dose response assay for protease inhibitors: thrombin. The settings on record: selectivity, thrombin over Factor XIa. As to the method: as §1

pIC50: −log10 of the molar value.

Chain of Factor XIa (P03951 388-625): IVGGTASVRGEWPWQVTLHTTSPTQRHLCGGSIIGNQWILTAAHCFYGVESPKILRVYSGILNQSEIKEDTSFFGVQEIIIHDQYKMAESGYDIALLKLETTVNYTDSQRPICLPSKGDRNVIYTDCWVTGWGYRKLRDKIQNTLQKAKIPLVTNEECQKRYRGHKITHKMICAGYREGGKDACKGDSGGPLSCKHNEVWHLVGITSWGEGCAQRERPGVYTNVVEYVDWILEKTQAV
Chain of Factor XIa (P03951 19-387 partner): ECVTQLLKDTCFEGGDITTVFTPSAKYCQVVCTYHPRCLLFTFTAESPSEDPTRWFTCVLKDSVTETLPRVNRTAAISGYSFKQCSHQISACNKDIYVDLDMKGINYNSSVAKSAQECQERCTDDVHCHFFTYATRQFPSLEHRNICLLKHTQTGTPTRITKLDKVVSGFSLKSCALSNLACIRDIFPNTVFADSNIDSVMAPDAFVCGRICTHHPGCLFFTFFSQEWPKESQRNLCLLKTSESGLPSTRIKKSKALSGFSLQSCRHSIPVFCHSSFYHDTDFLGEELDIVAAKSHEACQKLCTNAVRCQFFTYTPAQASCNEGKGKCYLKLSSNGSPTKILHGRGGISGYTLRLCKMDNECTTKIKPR
Chain of Factor Xa (P00742 235-488): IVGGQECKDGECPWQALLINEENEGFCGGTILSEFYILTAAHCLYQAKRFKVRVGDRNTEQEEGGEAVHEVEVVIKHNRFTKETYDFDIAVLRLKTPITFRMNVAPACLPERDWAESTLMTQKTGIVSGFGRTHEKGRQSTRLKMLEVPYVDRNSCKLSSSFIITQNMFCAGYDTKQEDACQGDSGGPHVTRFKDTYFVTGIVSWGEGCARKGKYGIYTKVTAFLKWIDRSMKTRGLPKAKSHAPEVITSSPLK
Chain of Factor Xa (P00742 41-179 partner): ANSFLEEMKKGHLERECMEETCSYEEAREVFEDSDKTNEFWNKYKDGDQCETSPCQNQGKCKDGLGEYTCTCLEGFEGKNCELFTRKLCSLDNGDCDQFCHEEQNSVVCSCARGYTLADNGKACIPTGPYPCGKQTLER

One may read the pIC50 as the negative decadic logarithm of the IC50, by convention in mol/L. Turning to `CC[C@@H](NC(=O)N1C(=O)[C@H](Cc2ccnc(N)c2)[C@H]1C(=O)N(C)c1nccn1C)c1ccc(C)cc1` [Compound 1-87, (2S,3R)-3-((2-aminopyridin-4-yl)methyl)-N2-(1-methyl-1H-imidazol-2-yl)-N1-((R)-1-(4-methylphenyl)propyl)-N2-methyl-4-oxoazetidine-1,2-dicarboxamide], in assay [1], the pIC50 was over 8.00. Also, in assay [2], the “Ratio: FXa/FXIa” value was “I (“I” indicates > 500)”. Moreover, the “Ratio: Trypsin/FXIa” value in assay [3] is “G (“G” indicates 1-100)”. Moreover, the “Ratio: Thrombin/FXIa” value in assay [4] is recorded as “H (“H” indicates 101-1000)”.
Turning to `CC[C@@H](NC(=O)N1C(=O)[C@H](Cc2ccnc(N)c2)[C@H]1C(=O)N(C)c1nccn1C)c1ccc(Cl)cc1` [Compound 1-94, (2S,3R)-3-((2-aminopyridin-4-yl)methyl)-N2-(1-methyl-1H-imidazol-2-yl)-N1-((R)-1-(4-chlorophenyl)propyl)-N2-methyl-4-oxoazetidine-1,2-dicarboxamide], the pIC50 in assay [1] is over 8.00. The “Ratio: FXa/FXIa” value in assay [2] is reported as “H (“H” indicates 101-1000)”. In addition, the “Ratio: Trypsin/FXIa” value in assay [3] is on record as “G (“G” indicates 1-100)”. The “Ratio: Thrombin/FXIa” value in assay [4] is recorded as “H (“H” indicates 101-1000)”.
With `CC[C@@H](NC(=O)N1C(=O)[C@H](Cc2ccnc(N)c2)[C@H]1C(=O)N(C)c1nccn1C)c1ccc(OC(F)(F)F)cc1` [Compound 1-97, (2S,3R)-3-((2-aminopyridin-4-yl)methyl)-N2-(1-methyl-1H-imidazol-2-yl)-N1-((R)-1-(4-trifluoromethoxyphenyl)propyl)-N2-methyl-4-oxoazetidine-1,2-dicarboxamide], the negative logarithm of the IC50 (pIC50) in assay [1] was 7.00 to 8.00. Further, the “Ratio: FXa/FXIa” value in assay [2] was “H (“H” indicates 101-1000)”. Also, in assay [3], the “Ratio: Trypsin/FXIa” value is “G (“G” indicates 1-100)”. Also, the “Ratio: Thrombin/FXIa” value in assay [4] is listed as “H (“H” indicates 101-1000)”.
Take `CC[C@@H](NC(=O)N1C(=O)[C@H](Cc2ccnc(N)c2)[C@H]1C(=O)N(C)c1nccn1C)c1ccc(F)cc1` [Compound 1-98, (2S,3R)-3-((2-aminopyridin-4-yl)methyl)-N2-(1-methyl-1H-imidazol-2-yl)-N1-((R)-1-(4-fluorophenyl)propyl)-N2-methyl-4-oxoazetidine-1,2-dicarboxamide]: the pIC50 in assay [1] is over 8.00. Also, the “Ratio: FXa/FXIa” value in assay [2] is reported as “I (“I” indicates > 500)”. The “Ratio: Trypsin/FXIa” value in assay [3] is “G (“G” indicates 1-100)”. Further, in assay [4], the “Ratio: Thrombin/FXIa” value is on record as “H (“H” indicates 101-1000)”.
With `CC[C@@H](NC(=O)N1C(=O)[C@H](Cc2ccnc(N)c2)[C@H]1C(=O)N(C)c1nccn1C)c1cc(C)ccc1C` [Compound 1-99, (2S,3R)-3-((2-aminopyridin-4-yl)methyl)-N2-(1-methyl-1H-imidazol-2-yl)-N1-((R)-1-(2,5-dimethylphenyl)propyl)-N2-methyl-4-oxoazetidine-1,2-dicarboxamide], the pIC50 in assay [1] was over 8.00. The “Ratio: FXa/FXIa” value in assay [2] is “H (“H” indicates 101-1000)”. The “Ratio: Trypsin/FXIa” value in assay [3] is recorded as “G (“G” indicates 1-100)”. The “Ratio: Thrombin/FXIa” value in assay [4] was “H (“H” indicates 101-1000)”.
For the compound `CC[C@@H](NC(=O)N1C(=O)[C@H](Cc2ccnc(N)c2)[C@H]1C(=O)N(C)c1nccn1C)c1ccc(C)c(C)c1` [Compound 1-100, (2S,3R)-3-((2-aminopyridin-4-yl)methyl)-N2-(1-methyl-1H-imidazol-2-yl)-N1-((R)-1-(3,4-dimethylphenyl)propyl)-N2-methyl-4-oxoazetidine-1,2-dicarboxamide], the pIC50 in assay [1] is over 8.00. Besides, the “Ratio: FXa/FXIa” value in assay [2] is listed as “H (“H” indicates 101-1000)”. In addition, the “Ratio: Trypsin/FXIa” value in assay [3] is recorded as “G (“G” indicates 1-100)”. In addition, the “Ratio: Thrombin/FXIa” value in assay [4] is given as “H (“H” indicates 101-1000)”.
With `CC[C@@H](NC(=O)N1C(=O)[C@H](Cc2ccnc(N)c2)[C@H]1C(=O)N(C)c1nccn1C)c1cc(C)ccc1Cl` [Compound 1-101, (2S,3R)-3-((2-aminopyridin-4-yl)methyl)-N2-(1-methyl-1H-imidazol-2-yl)-N1-((R)-1-(2-chloro-5-methylphenyl)propyl)-N2-methyl-4-oxoazetidine-1,2-dicarboxamide], the pIC50 in assay [1] was over 8.00. In assay [2], the “Ratio: FXa/FXIa” value is reported as “H (“H” indicates 101-1000)”. For the same compound, the “Ratio: Trypsin/FXIa” value in assay [3] is “G (“G” indicates 1-100)”. For the same compound, the “Ratio: Thrombin/FXIa” value in assay [4] is “H (“H” indicates 101-1000)”.
As for `CC[C@@H](NC(=O)N1C(=O)[C@H](Cc2ccnc(N)c2)[C@H]1C(=O)N(C)c1nccn1C)c1cc(C)ccc1F` [Compound 1-102, (2S,3R)-3-((2-aminopyridin-4-yl)methyl)-N2-(1-methyl-1H-imidazol-2-yl)-N1-((R)-1-(2-fluoro-5-methylphenyl)propyl)-N2-methyl-4-oxoazetidine-1,2-dicarboxamide], the pIC50 in assay [1] was over 8.00. Besides, in assay [2], the “Ratio: FXa/FXIa” value is listed as “I (“I” indicates > 500)”. Moreover, the “Ratio: Trypsin/FXIa” value in assay [3] was “G (“G” indicates 1-100)”. The “Ratio: Thrombin/FXIa” value in assay [4] is listed as “H (“H” indicates 101-1000)”.
The corresponding values for `CC[C@@H](NC(=O)N1C(=O)[C@H](Cc2ccnc(N)c2)[C@H]1C(=O)N(C)c1nccn1C)c1ccc(C)c(Cl)c1` [Compound 1-103, (2S,3R)-3-((2-aminopyridin-4-yl)methyl)-N2-(1-methyl-1H-imidazol-2-yl)-N1-((R)-1-(3-chloro-4-methylphenyl)propyl)-N2-methyl-4-oxoazetidine-1,2-dicarboxamide] are over 8.00, “H (“H” indicates 101-1000)”, “G (“G” indicates 1-100)” and “H (“H” indicates 101-1000)”.
The corresponding values for `CC[C@@H](NC(=O)N1C(=O)[C@H](Cc2cc(C)nc(N)c2)[C@H]1C(=O)N(C)c1nccn1C)c1ccc(Cl)cc1` [Compound 1-105, (2S,3R)-3-((2-amino-6-methylpyridin-4-yl)methyl)-N2-(1-methyl-1H-imidazol-2-yl)-N1-((R)-1-(4-chlorophenyl)propyl)-N2-methyl-4-oxoazetidine-1,2-dicarboxamide] are 7.00 to 8.00, “I (“I” indicates > 500)”, “G (“G” indicates 1-100)” and “H (“H” indicates 101-1000)”.
In the case of `CC[C@@H](NC(=O)N1C(=O)[C@H](Cc2cc(C)nc(N)c2)[C@H]1C(=O)N(C)c1nccn1C)c1ccc(F)cc1` [Compound 1-106, (2S,3R)-3-((2-amino-6-methylpyridin-4-yl)methyl)-N2-(1-methyl-1H-imidazol-2-yl)-N1-((R)-1-(4-fluorophenyl)propyl)-N2-methyl-4-oxoazetidine-1,2-dicarboxamide], the pIC50 in assay [1] is over 8.00. Besides, the “Ratio: FXa/FXIa” value in assay [2] was “I (“I” indicates > 500)”. Moreover, the “Ratio: Trypsin/FXIa” value in assay [3] is “G (“G” indicates 1-100)”. In addition, in assay [4], the “Ratio: Thrombin/FXIa” value is on record as “H (“H” indicates 101-1000)”.
The corresponding values for `CC[C@@H](NC(=O)N1C(=O)[C@H](Cc2cc(C)nc(N)c2)[C@H]1C(=O)N(C)c1nccn1C)c1ccc(C)cc1` [Compound 1-107, (2S,3R)-3-((2-amino-6-methylpyridin-4-yl)methyl)-N2-(1-methyl-1H-imidazol-2-yl)-N1-((R)-1-(4-methylphenyl)propyl)-N2-methyl-4-oxoazetidine-1,2-dicarboxamide] are 7.00 to 8.00, “I (“I” indicates > 500)”, “G (“G” indicates 1-100)” and “H (“H” indicates 101-1000)”.
